Measurements published in ChEMBL document CHEMBL1201862, “PubChem BioAssay data set” (2004).
Activity calls are given as the source filed them.

Legend:
[1] = target: Voltage-dependent T-type calcium channel subunit alpha-1H (Homo sapiens, UniProt O95180); format: functional;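 further: channel activity triggered by adding a high calcium stimulation buffer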
[2] = luciferase reporter signal suppression in cells – H4 neuroglioma cells, luminescence, dose response (AID 1990); format: functional, cell-based
BJ [3] = assay: BJ-TERT fibroblast viability loss – cell-based, RAS-independent, luminescence, dose response (AID 1933); format: functional; settings: Homo sapiens
[4] = Luminescence Cell-Based Dose Response HTS to Identify Inhibitors of 5'UTR Stem-Loop Driven Prion Protein mRNA Translation in H4 Neuroglioblastoma Cells. [Related pubchem assays: 1827 (Project Summary), 1813 (Primary HTS)]; format: functional
[5] = alpha-synuclein stem-loop luciferase translation blockers – H4 neuroglioma cells, luminescence, confirmation (AID 1988); format: functional, cell-based
BJ [6] = assay: cells; format: functional, cell-based; settings: Homo sapiens
BJ [7] = assay: BJ-TERT-LT-ST fibroblast viability loss – cell-based, RAS-independent, luminescence, dose response (AID 1935); format: functional; settings: Homo sapiens;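 further: BJ fibroblasts immortalized with TERT plus LT and ST oncogenes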
[8] = DRD fibroblast viability loss – cell-based, non-viral oncogenic, luminescence, dose response (AID 1934); format: functional; settings: Homo sapiens
[9] = P. falciparum Dd2 growth inhibitors, dose response, SYBR Green, cherry-picked samples (AID 1159567); format: functional, cell-based
[10] = toxicity to human hepatoma HepG2 cells – cell-based, cherry-picked samples, cytotoxicity control, dose response (AID 1159577); format: functional
[11] = target: T1, Carboxy-terminal domain RNA polymerase II polypeptide A small phosphatase 1 (Homo sapiens, UniProt Q9GZU7); assay: CTDSP1 inhibitors, concentration-response, biochemical, absorbance readout, ultra-high-throughput screen actives (AID 540297); format: functional
T1 sequence (Q9GZU7 whole entry): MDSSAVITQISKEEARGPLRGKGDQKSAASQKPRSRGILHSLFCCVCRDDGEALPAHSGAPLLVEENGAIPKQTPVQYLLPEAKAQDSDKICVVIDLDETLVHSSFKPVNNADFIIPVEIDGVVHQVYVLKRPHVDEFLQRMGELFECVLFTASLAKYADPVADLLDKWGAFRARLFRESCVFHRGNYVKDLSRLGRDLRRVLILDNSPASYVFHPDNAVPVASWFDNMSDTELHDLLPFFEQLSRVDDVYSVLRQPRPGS

Caspase-6 = target: T2, Caspase-6 (Homo sapiens, UniProt P55212); assay: inhibition of CASP6 peptide cleavage – biochemical, VEID-R110 fluorescence, cherry-pick, dose response (AID 720632)
T2 sequence (P55212 whole entry): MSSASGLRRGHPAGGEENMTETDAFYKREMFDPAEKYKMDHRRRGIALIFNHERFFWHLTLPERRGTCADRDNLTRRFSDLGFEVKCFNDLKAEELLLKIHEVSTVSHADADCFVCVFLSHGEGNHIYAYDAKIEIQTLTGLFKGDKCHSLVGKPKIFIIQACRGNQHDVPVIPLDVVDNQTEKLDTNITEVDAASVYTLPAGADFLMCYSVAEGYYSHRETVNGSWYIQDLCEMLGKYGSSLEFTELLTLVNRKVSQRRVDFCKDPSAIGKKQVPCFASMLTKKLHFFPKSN

[12] = target: T3, DNA repair protein RAD52 homolog (Homo sapiens, UniProt P43351); format: functional, biochemical
T3 sequence (P43351 whole entry): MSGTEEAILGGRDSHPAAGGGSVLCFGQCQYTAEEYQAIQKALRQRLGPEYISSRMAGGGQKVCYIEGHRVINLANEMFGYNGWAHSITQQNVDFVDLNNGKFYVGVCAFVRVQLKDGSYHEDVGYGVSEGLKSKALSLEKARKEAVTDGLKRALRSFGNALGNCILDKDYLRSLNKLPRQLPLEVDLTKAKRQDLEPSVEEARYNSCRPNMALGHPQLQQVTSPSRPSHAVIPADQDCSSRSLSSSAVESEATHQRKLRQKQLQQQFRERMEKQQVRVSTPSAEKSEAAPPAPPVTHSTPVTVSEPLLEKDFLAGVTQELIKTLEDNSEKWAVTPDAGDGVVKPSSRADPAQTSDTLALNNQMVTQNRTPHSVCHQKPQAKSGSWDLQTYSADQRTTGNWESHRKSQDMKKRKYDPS

cells = format: functional
[13] = blockers of HIV-1 envelope-mediated cell-cell fusion – cherry-pick, dose response (AID 652057); format: functional, cell-based
[14] = blockers of HIV-1 ZM109 envelope-driven cell-cell fusion – HeLa effector, CEM target cells, luciferase, cherry-pick, dose response (AID 652058); format: functional, cell-based;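 further: luciferase signal from HIV-1 Env mediated cell-cell fusion of effector and target cells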
[15] = off-target signal loss in HeLa-CEM21 co-culture – HeLa F-luc CTL cells, cherry-picked, counter-screen for HIV-1 Env fusion inhibitor project, dose response (AID 652040); format: functional, cell-based;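 further: potency for signal decrease marking cytotoxic or nonspecific inhibition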
[16] = HIV-1 AD8 envelope cell-cell fusion blockers – cherry-pick, dose response (AID 652062); format: functional, cell-based;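 further: luciferase signal from cell-cell fusion driven by HIV-1 clade B AD8 Env; potency is for inhibitors of fusion seen as a drop in luminescence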
Paired box protein Pax-8 = Paired box protein Pax-8 (Homo sapiens, UniProt Q06710); assay: PAX8 transcriptional activity inhibition in RMG-I – RMG-I cells, luciferase, cherry-pick, dose response (AID 687027); format: functional, cell-based;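 further: luciferase reporter driven by Pax8 target thyroperoxidase promoter measured by SteadyGlo luminescence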
Paired box protein Pax-8, sequence (Q06710 whole entry): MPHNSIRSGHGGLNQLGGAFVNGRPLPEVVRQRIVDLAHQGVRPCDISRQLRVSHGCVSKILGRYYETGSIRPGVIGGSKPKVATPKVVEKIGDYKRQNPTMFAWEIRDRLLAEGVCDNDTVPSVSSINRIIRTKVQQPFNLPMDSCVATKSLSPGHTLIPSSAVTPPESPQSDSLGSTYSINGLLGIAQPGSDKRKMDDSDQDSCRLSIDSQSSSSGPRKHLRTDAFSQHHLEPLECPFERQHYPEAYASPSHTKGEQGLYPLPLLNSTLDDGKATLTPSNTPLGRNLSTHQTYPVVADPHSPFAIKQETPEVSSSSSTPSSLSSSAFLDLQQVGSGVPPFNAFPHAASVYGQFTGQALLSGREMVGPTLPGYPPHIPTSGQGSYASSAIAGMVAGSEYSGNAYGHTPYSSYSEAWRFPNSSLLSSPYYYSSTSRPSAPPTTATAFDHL

Voltage-dependent T-type calcium channel subunit alpha-1H, sequence (O95180 whole entry): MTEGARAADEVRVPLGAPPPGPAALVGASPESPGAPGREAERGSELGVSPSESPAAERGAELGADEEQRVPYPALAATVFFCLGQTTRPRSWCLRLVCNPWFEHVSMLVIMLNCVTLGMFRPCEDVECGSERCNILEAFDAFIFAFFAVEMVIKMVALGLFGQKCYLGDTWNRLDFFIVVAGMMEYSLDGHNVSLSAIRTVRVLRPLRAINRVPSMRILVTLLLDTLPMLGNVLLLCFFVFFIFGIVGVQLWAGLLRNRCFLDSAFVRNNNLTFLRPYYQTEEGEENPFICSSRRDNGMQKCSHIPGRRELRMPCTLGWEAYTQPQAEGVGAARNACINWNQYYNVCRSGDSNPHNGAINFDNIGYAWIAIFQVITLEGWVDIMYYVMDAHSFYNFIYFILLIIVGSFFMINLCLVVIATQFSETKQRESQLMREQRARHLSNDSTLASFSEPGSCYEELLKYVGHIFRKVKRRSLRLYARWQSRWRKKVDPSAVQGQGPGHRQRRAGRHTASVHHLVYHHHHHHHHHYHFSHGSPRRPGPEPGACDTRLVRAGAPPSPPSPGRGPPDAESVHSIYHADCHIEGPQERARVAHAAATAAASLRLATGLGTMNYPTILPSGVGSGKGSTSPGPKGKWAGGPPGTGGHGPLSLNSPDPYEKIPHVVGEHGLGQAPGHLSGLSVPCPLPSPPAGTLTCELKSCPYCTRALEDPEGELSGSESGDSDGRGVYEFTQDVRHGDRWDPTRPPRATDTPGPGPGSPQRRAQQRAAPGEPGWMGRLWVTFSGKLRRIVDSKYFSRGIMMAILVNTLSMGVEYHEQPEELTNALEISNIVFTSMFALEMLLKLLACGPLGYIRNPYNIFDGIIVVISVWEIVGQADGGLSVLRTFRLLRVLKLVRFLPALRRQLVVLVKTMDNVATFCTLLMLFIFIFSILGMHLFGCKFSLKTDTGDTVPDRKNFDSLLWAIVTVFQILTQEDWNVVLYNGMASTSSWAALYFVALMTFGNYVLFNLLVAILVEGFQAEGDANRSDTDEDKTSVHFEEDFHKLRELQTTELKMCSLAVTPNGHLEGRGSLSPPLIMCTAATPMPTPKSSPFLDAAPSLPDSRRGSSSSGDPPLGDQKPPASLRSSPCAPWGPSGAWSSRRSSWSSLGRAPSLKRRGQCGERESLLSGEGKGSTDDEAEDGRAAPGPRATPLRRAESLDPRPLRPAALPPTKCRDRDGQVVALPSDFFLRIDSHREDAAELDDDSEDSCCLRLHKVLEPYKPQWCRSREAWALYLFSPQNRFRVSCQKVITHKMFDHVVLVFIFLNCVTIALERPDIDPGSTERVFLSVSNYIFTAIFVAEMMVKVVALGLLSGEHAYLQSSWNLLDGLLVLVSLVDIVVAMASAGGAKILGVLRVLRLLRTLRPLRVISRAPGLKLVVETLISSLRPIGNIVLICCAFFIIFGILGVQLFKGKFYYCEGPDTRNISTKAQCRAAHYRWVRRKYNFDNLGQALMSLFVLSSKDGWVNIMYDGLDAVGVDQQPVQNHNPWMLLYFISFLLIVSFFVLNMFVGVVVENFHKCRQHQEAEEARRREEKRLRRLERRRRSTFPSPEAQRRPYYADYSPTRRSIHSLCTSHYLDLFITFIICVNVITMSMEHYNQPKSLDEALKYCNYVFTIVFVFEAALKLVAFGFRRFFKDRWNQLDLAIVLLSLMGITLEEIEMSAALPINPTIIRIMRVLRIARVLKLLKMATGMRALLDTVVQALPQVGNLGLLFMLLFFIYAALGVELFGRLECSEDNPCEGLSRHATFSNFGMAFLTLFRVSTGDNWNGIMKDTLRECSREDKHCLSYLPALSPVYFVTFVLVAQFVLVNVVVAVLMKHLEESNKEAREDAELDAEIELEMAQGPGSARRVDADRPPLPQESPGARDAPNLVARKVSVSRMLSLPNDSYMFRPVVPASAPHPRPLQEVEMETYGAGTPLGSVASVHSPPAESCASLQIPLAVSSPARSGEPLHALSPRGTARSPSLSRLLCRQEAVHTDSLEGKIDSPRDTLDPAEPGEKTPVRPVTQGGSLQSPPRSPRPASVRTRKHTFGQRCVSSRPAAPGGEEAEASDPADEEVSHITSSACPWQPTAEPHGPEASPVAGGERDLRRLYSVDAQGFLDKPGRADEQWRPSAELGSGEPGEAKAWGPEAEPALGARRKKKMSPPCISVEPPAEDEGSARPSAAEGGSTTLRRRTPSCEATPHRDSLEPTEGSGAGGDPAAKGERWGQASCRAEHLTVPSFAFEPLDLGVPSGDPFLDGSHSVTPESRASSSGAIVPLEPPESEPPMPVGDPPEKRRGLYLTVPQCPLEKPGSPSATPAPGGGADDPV

Cc1ccc(C(=O)NCc2ccc3c(c2)OCO3)cc1S(=O)(=O)N1CCCCC1
EC50 [1]: 5.23 µM (active)

CC(C(=O)OCC(=O)Nc1ccc(S(=O)(=O)N2CCCCC2)cc1)N1C(=O)c2ccccc2C1=O (stereo not given)
EC50 [1]: 5.44 µM (active)

CCN1C(=O)/C(=C\N2CCN(c3ccc(F)cc3)CC2)SC1=S
EC50 [2]: 16.1 µM (active)
EC50 (BJ [3]): 81.2 µM (active)
EC50 [4]: > 120 µM (not active)
EC50 [5]: > 120 µM (not active)
EC50 (BJ [6]): > 150 µM (not active)
EC50 (BJ [7]): > 150 µM (not active)
EC50 [8]: > 150 µM (not active)

O=C(C1CCCC1)N1C[C@@H]2N[C@H](C1)[C@@H]2c1ccc(/C=C/c2ccccc2)cc1
AC50 [9]: 4.23 µM (active)
AC50 [10]: 7.79 µM (active)

CC1CCCCN1C(=O)CSCC(=O)Nc1nc(-c2cccs2)cs1 (stereo not given)
EC50 [1]: 4.06 µM (active)

O=C(O)C1C2C=CC(C2)C1C(=O)Nc1ccccc1Br (stereo not given)
IC50 [11]: 16.7 µM (active)
AC50 (Caspase-6): 6.78 µM (active)

O=C(CCSc1ccc(Cl)c(Cl)c1)NC12CC3CC(CC(C3)C1)C2
EC50 [1]: 5.57 µM (active)

Cc1cc2nc(NC(=N)N)nc(C)c2cc1C
AC50 [12]: 3.41 µM (active)

CCCCn1c(=O)c(C(=O)Nc2nnc(C(C)C)s2)c(O)c2ccccc21
IC50 (cells): 5.24 µM (active)

C=C1CCN([C@H](C(=O)OCc2cccc(C)c2)C(C)C)S(=O)(=O)c2ccccc21
AC50 [13]: 1.99 µM (active)
AC50 [14]: 3.64 µM (active)
AC50 [15]: 5.21 µM (active)
AC50 [16]: 4.76 µM (active)

CCO/C=C1/C(=O)N(c2ccccc2OC)C(=O)c2ccccc21
AC50 (Caspase-6): 13.9 µM (active)

C[C@@H]1CN([C@@H](C)CO)C(=O)Cc2cc(NC(=O)Nc3ccc(F)cc3)ccc2O[C@H]1CN(C)CC1CCCCC1
AC50 (Paired box protein Pax-8): 20.4 µM (active)
AC50 [9]: 7.86 µM (active)
AC50 [10]: 10.9 µM (active)

O=C(N/N=C/c1ccc(OC(=O)c2cccs2)cc1)c1ccccn1
IC50 (cells): 5.37 µM (active)

CC[C@@]1(C(=O)OC)N[C@H](CN(C)S(=O)(=O)c2ccc(-c3ccccc3)cc2)[C@@H]2C(=O)N(Cc3ccccc3)C(=O)[C@@H]21
AC50 [13]: 2.09 µM (active)
AC50 [14]: 2.28 µM (active)
AC50 [15]: 2.61 µM (active)
AC50 [16]: 2.54 µM (active)
